Where two headings read alike, the source gives them in different places.
Biological target: T1, naturally occurring proton-gated cation channel in a HEK293 cell (Homo sapiens, UniProt P78348)
T1 construct: a naturally occurring proton-gated cation channel in a HEK293 cell; endogenous in cells; host or cells: HEK293
T1 sequence (P78348 1-528): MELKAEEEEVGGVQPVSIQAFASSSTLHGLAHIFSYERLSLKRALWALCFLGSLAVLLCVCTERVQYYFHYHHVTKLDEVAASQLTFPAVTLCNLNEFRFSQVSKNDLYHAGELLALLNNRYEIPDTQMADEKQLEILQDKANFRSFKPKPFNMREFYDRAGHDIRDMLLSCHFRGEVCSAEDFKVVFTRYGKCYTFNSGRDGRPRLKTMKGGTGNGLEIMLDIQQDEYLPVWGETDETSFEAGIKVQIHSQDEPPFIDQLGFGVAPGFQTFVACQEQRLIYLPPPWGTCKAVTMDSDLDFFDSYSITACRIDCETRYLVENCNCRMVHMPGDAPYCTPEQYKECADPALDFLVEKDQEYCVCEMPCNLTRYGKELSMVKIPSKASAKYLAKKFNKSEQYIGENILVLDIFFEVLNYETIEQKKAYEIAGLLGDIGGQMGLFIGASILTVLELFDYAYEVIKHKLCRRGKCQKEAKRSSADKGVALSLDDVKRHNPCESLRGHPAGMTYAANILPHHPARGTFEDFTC
Assay: Patch clamp of whole cell currents elicited by a drop in extracellular pH in HEK293 cells
Assay type: cell-based
Conditions: read-out: IC50, inhibition of the proton activated response
Experimental: In this example the current flux induced by protons over the membrane of a naturally occurring proton-gated cation channel in a HEK293 cell was determined using patch clamp techniques.
Using this technique, the effects of the compounds for use according to the invention was investigated on whole cell currents elicited by a drop in extracellular pH from 7.4 to 6.5.

[1] = extracellular pH drop from 7.4 to 6.5, group IC50 below 1 μM (of from 100 nM to 1 μM)
[2] = extracellular pH drop from 7.4 to 6.5, group IC50 below 10 μM (of from 1 μM to 10 μM)
[3] = extracellular pH drop from 7.4 to 6.5, group IC50 below 100 nM

IC50 [1] | IC50 [2] | IC50 [3] | Structure (SMILES)
< 1000 nM | – | – | CN1CCc2c(-c3ccc4ccccc4c3)cc3c(c2C1)NC(=O)C3=NO [5-(2-naphthyl)-8-methyl-6-7-8-9-tetrahydro-1-H-pyrrolo-[3.2-h]-isoquinoline-2,3-dione-3-oxim]
< 1000 nM | – | – | CN1CCc2c(-c3ccc(S(=O)(=O)N(C)C)cc3)cc3c(c2C1)NC(=O)C3=NO [8-methyl-5-(4-(N,N-dimethylsulfamoyl)-phenyl)-6,7,8,9-tetrahydro-1H-pyrrolo-[3,2-h]-isoquinoline-2,3-dione-3-oxime]
< 1000 nM | – | – | COc1cccc(-c2cc3c(c4c2CCN(C)C4)NC(=O)/C3=N\O)c1 [8-methyl-5-(3-methoxyphenyl)-6-7-8-9-tetrahydro-1-H-pyrrolo-[3.2-h]-isoquinoline-2,3-dione-3-oxim]
– | 1000 to 10000 nM | – | CCN1CCc2c(-c3ccccc3)cc3c(c2C1)N(C)C(=O)C3=NOC [8-ethyl-5-phenyl-6-7-8-9-tetrahydro-1-methyl-pyrrolo-[3,2-h]-isoquinoline-2,3-dione-3-O-methyloxim]
< 1000 nM | – | – | CON=C1C(=O)Nc2c1cc(-c1ccccc1)c1c2CN(C)CC1 [8-methyl-5-phenyl-6-7-8-9-tetrahydro-1H-pyrrolo-[3,2-h]-isoquinoline-2,3-dione-3-methyloxim]
– | 1000 to 10000 nM | – | O=C1Nc2c(cc(-c3ccc(Cl)cc3)c3c2CCCC3)C1=NO [5-(4-chlorophenyl)-6-7-8-9-tetrahydro-1-H-pyrrolo-[3.2-h]-naphthalene-2,3-dione-3-oxim]
– | 1000 to 10000 nM | – | COc1ccc(-c2cc3c(c4c2CCN(C)C4)NC(=O)C3=NO)cc1 [8-methyl-5-(4-methoxyphenyl)-6-7-8-9-tetrahydro-1-H-pyrrolo-[3.2-h]-isoquinoline-2,3-dione-3-oxim]
< 1000 nM | – | – | CCN1CCc2c(-c3ccccc3)cc3c(c2C1)N(C)C(=O)C3=NO [8-ethyl-5-phenyl-6-7-8-9-tetrahydro-1-methyl-pyrrolo-[3,2-h]-isoquinoline-2,3-dione-3-oxim]
< 1000 nM | – | < 100 nM | CN1Cc2c(-c3ccccc3)cc3c(c2C1)NC(=O)C3=NO [7-methyl-5-phenyl-1-6-7-8-tetrahydrobenzo-[2,1-b:3,4-c]-dipyrrole-2,3-dione-3-oxime]
– | 1000 to 10000 nM | – | O=C1Nc2c(cc(-c3ccccc3)c3c2CCCC3)/C1=N/O [5-phenyl-6-7-8-9-tetrahydro-1-H-pyrrolo-[3.2-h]-naphthalene-2,3-dione-3-oxim]
– | 1000 to 10000 nM | – | COC(=O)CN1CCc2c(-c3ccccc3)cc3c(c2C1)NC(=O)C3=NO [8-methoxycarbonylmethyl-5-phenyl-6,7,8,9-tetrahydro-1H-pyrrolo-[3,2-h]-isoquinoline-2,3-dione-3-oxime]
– | – | < 100 nM | CN1CCc2c(-c3ccc(Cl)cc3)cc3c(c2C1)NC(=O)C3=NO [5-(4-chlorophenyl)-8-methyl-6-7-8-9-tetrahydro-1-H-pyrrolo-[3,2-h]-isoquinoline-2,3-dione-3-oxim]
– | – | < 100 nM | CN1CCc2c(-c3ccccc3)cc3c(c2C1)NC(=O)C3=NO [8-methyl-5-phenyl-6-7-8-9-tetrahydro-1H-pyrrolo-[3,2-h]-isoquinoline-2,3-dione-3-oxim]
– | – | < 100 nM | CC(=O)ON=C1C(=O)Nc2c1cc(-c1ccccc1)c1c2CN(C)CC1 [8-methyl-5-phenyl-6,7,8,9-tetrahydro-1H-pyrrolo-[3,2-h]-isoquinoline-2,3-dione-3-acetyloxim]
– | – | < 100 nM | CCN1CCc2c(-c3ccccc3)cc3c(c2C1)NC(=O)/C3=N/O [8-ethyl-5-phenyl-6-7-8-9-tetrahydro-1H-pyrrolo-[3,2-h]-isoquinoline-2,3-dione-3-oxim]
< 1000 nM | – | – | CCN1Cc2c(-c3ccccc3)cc3c(c2C1)NC(=O)C3=NO [7-ethyl-5-phenyl-1-6-7-8-tetrahydrobenzo-[2,1-b:3,4-c]-dipyrrole-2,3-dione-3-oxime]
– | – | < 100 nM | CN1CCc2c(-c3ccc(F)cc3)cc3c(c2C1)NC(=O)C3=NO [8-methyl-5-(4-fluorophenyl)-6,7,8,9-tetrahydro-1H-pyrrolo-[3,2-h]-isoquinoline-2,3-dione-3-oxim]

— US7288653B2, “Inhibitors of proton-gated cation channels and their use in the treatment of ischaemic disorders” (PainCeptor Pharma Corporation, priority 1999, dated 2007)
